Laboratory results taken from patent publication US11465978B2, “Anthranilic amides and the use thereof” (THE ADMINISTRATORS OF THE TULANE EDUCATIONAL FUND, priority 2013, dated 2022).

Key:
Assay type in all cases: cell-based
Mia-PaCa2 cells = assay: Crystal violet morphology of pancreatic cancer cells; conditions: Mia-PaCa2, 3 days
Method: (A) Mia-PaCa2 cells were seeded in a 96-well plate at a density of 1,000 cells per well and treated with vehicle (DMSO) and SC-1-151. After 3 days, cells were fixed with glutaraldehyde and stained with crystal violet. (B) qPCR for EMT-regulating genes following SC-1-151 treatment. Pancreatic cancer cells were grown in 5% CS phenol free DMEM for 48 hours before treatment with vehicle (DMSO) or SC-1-151 (1 μM) for 24 hours. Cycle number was normalized to R-actin and vehicle-treated cells scaled to 1, n=3.

pERK5 = assay: Western blot, inhibition of EGF-mediated formation of pERK5 in MDA-MB-231 cells
Method: FIG. 9 is a set of bar graphs showing a Western blot analysis of potential MEK5 inhibitors. The MDA-MB-231 triple negative breast cancer cell line was pretreated with compounds (10 μM) for 30 minutes followed by stimulation with epidermal growth factor (EGF, 50 ng/mL) for 15 minutes. Vehicle-treated cells were pretreated with DMSO for 30 minutes prior to EGF stimulation for 15 minutes. Protein visualization and quantification analysis were performed using LI-COR Odyssey Imager. * P<0.05 vs. Vehicle, one-way ANOVA followed by Tukey-Kramer test (n=3).
A number of compounds were tested for their potential as MEK5 inhibitors. The MDA-MB-231 triple negative breast cancer cell line was pretreated with 10 μM of compounds 24, 9b, 9a, 9c, 9e, 9f, 9d, 9h, 23, 7, and 15 for 30 minutes followed by stimulation with epidermal growth factor (EGF, 50 ng/mL) for 15 minutes. Vehicle-treated cells and known MEK1/2 inhibitor cells were pretreated with DMSO and U0126 respectively for 30 minutes prior to EGF stimulation for 15 minutes. Protein visualization and quantification analysis was performed using LI-COR Odyssey Imager. The results of the Western blot analysis are shown in FIG. 9. * P<0.05 vs. Vehicle, one-way ANOVA followed by Tukey-Kramer test (n=3).
MDA-MB-231 cells were grown on 10 cm cell culture plates [Sarstedt] in Dulbecco's Modified Eagle's Medium (DMEM; Gibco) with Ham's F12 Nutrient Mixture (1:1) (Invitrogen), 10% heat-inactivated FBS [Atlanta Biological and 0.5% penicillin/streptomycin [Gibco]. Cells were maintained at 37° C. with 5% CO2. Plating of the cells was done 36 hours before treatment in 35 mm culture plates [Sarstedt] and allowed to reach confluence. To test MEK-5 inhibitors, the cells were treated with epidermal growth factor (EGF; Sigma-Aldrich) 30 min after treatment with the compounds. 15 min after the addition of EGF, the cells were washed with 1×PBS [Sigma-Aldrich] and then lysed in 1% Triton X-100 buffer containing 20 mM Tris (pH 6.8), 137 mM NaCl, 25 mM beta glycerophosphate, 2 mM NaPPi, 2 mM EDTA, 1 mM Na3VO4, 10% glycerol, 5 μg/mL leupeptin, 5 μg/mL aprotinin, 2 mM benzamidine, 0.5 mM DTT, and 1 mM PMSF. The lysates were then centrifuged at 10,000 rpm for 10 min at 4° C.
Total protein content was assessed by Bradford Bio-Rad protein assay (Cat. No. 500-0006, Bio-Rad, Hercules, Calif.) and 30 μg of protein was loaded on a 8% SDS-PAGE gel for phosphorylated and total ERK1/2 and ERK5 proteins. After running the samples, gels were transferred to a nitrocellulose membrane (Cat. No. 926-31092, Licor Biosciences, Lincoln, Nebr.). After transfer, membranes were washed for 5 min with 1×PBS and blocked for 1 h in a Casein Blocking Buffer (Cat. No. 927-40200, Licor Biosciences) at room temperature. Membranes were then incubated overnight at 4° C. in primary antibody in CBB with 0.2% Tween-20. Antibodies included rabbit anti-phospho-ERK1/2 (Dilution—1:1000, Cat. No. 9101, Cell Signaling, Beverly, Mass.), mouse anti-total ERK1/2 (Dilution—1:1000, Cat. No. 9107, Cell Signaling), and rabbit anti-total ERK5 (Dilution—1:1,000, Cat. No. 3372, Cell Signaling). Mouse anti-α-Tubulin (Dilution—1:10,000, Cat. No. T5168, Sigma-Aldrich) was used as a loading control. After incubation with primary antibody, blots were washed in 1×PBS solution with 0.2% Tween-20 (1×PBS-T) and incubated with goat anti-rabbit (Dilution—1:10,000, Cat. No. 926-68021, LICOR Biosciences) and goat anti-mouse (Dilution—1:10,000, Cat. No. 926-32210, LICOR Biosciences) secondary antibodies for 1 h at room temperature. After washing the membranes with 1×PBS-T, the protein bands were visualized on an Odyssey Infrared Imager and quantified with Odyssey software (LICOR Biosciences).

MDA-MB 231 cells = assay: Morphology (mesenchymal to epithelial phenotype) during proliferation testing
Method: Proliferation studies were conducted using MDA-MB 231 cells, as they express the triple negative cancer phenotype. Compound 3 was selected due to its potency in inhibition of both MEK1/2 and MEK5. MDA-MB 231 cells were plated at 10,000 cells per well in a 96 well TC plate in 5% Charcoal-Dextran stripped media and incubated overnight at 37° C. in 5% CO2. The cells were treated with drug or vehicle the following day. Plates were harvested on days 3, 5 and 7 and stained with Crystal Violet. […] The cells were washed, lysed, and the absorbance of Crystal Violet sequestered in living cells was determined at […]. Wells were conducted in duplicate. Experiments were run in triplicate. Cells were normalized to initial cell count.
Examination of the MDA-MB 231 cells during the proliferation testing period was conducted. Untreated (DMSO) cells retained an elongated spiky cellular morphology characteristic of the mobile and invasive mesenchymal phenotype. […] The observed phenotypic conversion persisted for 14 days without reversion back to the mesenchymal phenotype, see FIG. 12.

NC(=O)c1ccc(F)c(F)c1Nc1ccc(I)cc1F [Compound 3, 3,4-difluoro-2-((2-fluoro-4-iodophenyl)amino)benzamide]
phenotype of pancreatic cancer cells (Mia-PaCa2 cells): induces an epithelial phenotype
pERK-5 decrease (%) (pERK5; Example 3 table, DMSO = 0, MDA-MB-231, EGF stimulation): 59%
inhibition at 10 µM (pERK5; Homo sapiens, MDA-MB-231, Table 1, MDA-MB-231, compounds 10 μM 30 min, then EGF 50 ng/mL 15 min, read-out: cellular pERK5 decrease (%)): 56.5%
conversion of mesenchymal to epithelial cellular morphology (MDA-MB 231 cells): more rounded cellular morphology
persistence of phenotypic conversion without reversion to mesenchymal phenotype (MDA-MB 231 cells): 14 days
conversion of cell phenotype (MDA-MB 231 cells; 10 μM): marked conversion of nearly all cells back to a more rounded phenotype
